The subject of data set [1] is HepG2 cells. Put plainly: MTT anti-proliferation assay, HepG2. Type of data set: cell-based, human. The conditions noted are these: average of three determinations. As to the method:
(§1) The 22 synthesized resveratrol compounds were evaluated for anti-proliferative activities against three human cancer cell lines, including HepG2, A549 and HeLa cells, using 3-[4,5-dimethylthiazol-2-yl]-2,5 diphenyl tetrazolium bromide (MTT) assays. Paclitaxel, a well-known tubulin inhibitor, was used as a positive control. […] Therefore, the inhibitory activity of the compounds depended not only on the 2-position substitution of acrylic acid, but also on the 3-position substitution of acrylic acid.
(§2) The anti-proliferative and cytotoxicity activity was determined using MTT assay. Human cervical carcinoma HeLa cells, human hepatocellular carcinoma HepG2 cells, human lung carcinoma A549 cells were representative in the anti-proliferation assay, which were obtained from the Shanghai Institute of Cell Biology (Shanghai, China). Normal African green monkey kidney Vero cells were a gift from Dr Xiumiao He at Guangxi University for Nationalities. Normal human hepatocytes LO2 cells were a gift from Dr Xing Lin at Guangxi Medical University. The HepG2, Hela, LO2 and Vero cells were cultured in Dulbecco's modified Eagle's medium (DMEM, Gibco) and the A549 cells were cultured in RPMI1640 (Gibco), both media were supplemented with 10% fetal calf serum and antibiotics (100 IU ml^−1 penicillin, 100 IU ml^−1 streptomycin; Amresco).
(§3) Cells were seeded in 96-well microtiter plates at a density of 1 × 10^4 cells well^−1 and incubated with different concentrations of compound (6.25, 12.50, 25.00, 50.00 to 100.00 µM), cisplatin and paclitaxel in RPMI-1640 or DMEM at 37°C with 5% CO2. After 24 h, cell morphology was observed using a light microscope, and then 20 µl of MTT solution (5 mg ml^−1) was added to the well and incubated for 4 h, then cell survival was determined by measuring the optical density (OD) absorbance at a wavelength of 570 nm using an ELISA microplate reader. The inhibition rate (IR) following each compound treatment was determined by the following equation: IR (%) = (1 − ODexp/ODcon) × 100%, where ODexp and ODcon are the OD of the treated and untreated cells, respectively. Cisplatin and paclitaxel were used as positive control drugs.
Background: Tetrazolium dyes change colour on reduction, which living cells bring about.

The subject of another data set is A549 cells. Put plainly: MTT anti-proliferation assay, A549. The conditions noted are these: average of three determinations. Type of data set: cell-based, human. As to the method:
as §1, §2, §3

The next data set concerns HeLa cells. Put plainly: MTT anti-proliferation assay, HeLa. Type of data set: cell-based, human. The conditions noted are these: 24 h, average of three determinations. As to the method:
The 22 synthesized resveratrol compounds were evaluated for anti-proliferative activities against three human cancer cell lines, including HepG2, A549 and HeLa cells, using 3-[4,5-dimethylthiazol-2-yl]-2,5 diphenyl tetrazolium bromide (MTT) assays. Paclitaxel, a well-known tubulin inhibitor, was used as a positive control.
as §2
After 24 h, cell morphology was observed using a light microscope, and then 20 µl of MTT solution (5 mg ml^−1) was added to the well and incubated for 4 h, then cell survival was determined by measuring the optical density (OD) absorbance at a wavelength of 570 nm using an ELISA microplate reader. […] Cisplatin and paclitaxel were used as positive control drugs.

The next data set concerns Vero cells. Put plainly: MTT cytotoxicity test, Vero. It is filed as cell-based, African green monkey. The conditions noted are these: 24 h, average of three determinations. As to the method:
(§4) Vero cells are non-tumorigenic cell lines and are important raw materials as the research and production of biological products. Vero cells show low tumorigenicity and had been approved for use in the production of human virus vaccines. Thus, Vero cells were chosen as a control for cytotoxicity. All compounds were evaluated for their cell toxicity against Vero and normal human hepatocytes cells line (LO2) using MTT assays.
as §2, §3

The subject of data set [2] is normal human hepatocytes LO2 cells. Put plainly: MTT cytotoxicity test, LO2. Type of data set: cell-based. The conditions noted are these: 24 h, average of three determinations. As to the method: as §4, §2, §3
Data set [3] relates to HepG2 cells. Nature of the data set: Morphologic observation by light microscope. The conditions noted are these: HepG2, cisplatin 20 µM, 24 h. Type of data set: cell-based, human. As to the method:
Morphological observations can directly reflect the effects of drugs on cells. HepG2 cells were cultured with increasing concentrations of compound r (0, 5, 15 and 45 µM) for 24 h and observed using a light microscope. The cell morphology was clearly altered with the increase in drug concentration (figure 2).
Figure 2. Effect of compound r on the microscopic examination of HepG2 cells. Morphology of HepG2 treated with compound r (0, 5, 15 and 45 µM) and cisplatin (20 µM) for 24 h. Light microscopy photographs, with 40× objective.
as §3

In data set [4] the test system is HepG2 cells. Nature of the data set: Cell cycle assay by flow cytometry. The conditions noted are these: HepG2, 20 µM, 24 h. It is filed as cell-based, human. As to the method: To evaluate the effects of compound r on cell cycle progression of HepG2, cells were treated with compound r at different concentrations (0, 5, 15 and 45 µM) for 24 h and then examined by flow cytometry. The accumulation of cells in S phase increased with increasing concentration of compound r. Approximately 18.36 ± 1.93%, 19.39 ± 2.06%, 29.9 ± 0.87% and 34.24 ± 1.00% of cells were arrested in S phase in response to 0, 5, 15 and 45 µM compound r, respectively. In comparison, 39.56 ± 0.97% cells were arrested in S phase after treatment with 20 µM cisplatin for 24 h.
Figure 5. Cells treated with 0, 5, 15 and 45 µM compound r for 24 h were collected and analysed by flow cytometry. Images were representative of three independent experiments. Values represented the mean ± s.d.; versus blank, *p < 0.01, **p < 0.001; versus control ^#p < 0.01, ^##p < 0.001.
Cells were treated with compound r (0, 5, 15, 45 µM) or 20 µM of cisplatin as the control for 24 h. Cells were collected by centrifugation (1000 rpm, 5 min), washed with PBS and fixed with 70% ice-cold ethanol overnight at 4°C. The cell cycle was examined on a flow cytometer using a cell cycle analysis kit (Beyotime Biotechnologyin, China) in accordance with the manufacturer's instructions.
A general note: In flow cytometry, cells or beads pass a laser one at a time.

The nature of data set [5]: MTT cytotoxicity test, Vero. The conditions noted are these: African green monkey, Vero cells (normal African green monkey kidney), average of three determinations. Type of data set: cell-based, African green monkey. As to the method: as §4, §2, §3
Data set [6] can be described thus: MTT cytotoxicity test, LO2. Type of data set: cell-based, human. The conditions noted are these: human, LO2 cells (normal human hepatocytes), average of three determinations. As to the method: as §4, §2, §3

The term IC50 denotes the concentration needed to halve the response being measured. What is called CC50 is the concentration that lowers cell viability or growth by half. As usually defined, the melting point is the temperature of the solid-liquid transition.

Where only a bound is given, the exact number is not on record here.

In the case of “3-(4-hydroxy-3-methoxy-5-nitrophenyl)-2-(4-methoxyphenyl) acrylic acid [compound s]”, the IC50 in the data set with HepG2 cells [1] (24 h) turned out to be 42 ± 4 µM; with A549 cells (24 h), 15 ± 4 µM; in the data set on HeLa cells it was 39 ± 2 µM. Also, the figures for the CC50 (in the data set on Vero cells; in [2]) were more than 100 µM and 83 ± 2 µM, respectively.
With `N.N.[Cl][Pt][Cl]` [cisplatin, reference compound], the cell morphology entry in the data set with HepG2 cells [3] was “rounded shape”. Moreover, the “cells arrested in S phase” value in the data set on HepG2 cells [4] was 39.56 ± 0.97%.
For `COc1cc(C(=Cc2cc(Cl)ccc2[N+](=O)[O-])C(=O)O)cc(OC)c1OC` [compound m, 3-(5-chloro-2-nitrophenyl)-2-(3,4,5-trimethoxyphenyl) acrylic acid], the melting point was in the range of 167 to 169 °C. In the data set on HepG2 cells [1] (Homo sapiens, HepG2, 24 h), this compound gave a half-inhibitory concentration (IC50) of more than 100 µM. This compound returned an IC50 in the data set with A549 cells (Homo sapiens, A549, 24 h) of 34 ± 2 µM. Moreover, inhibition with HeLa cells (Homo sapiens, HeLa) was half-maximal at 60 ± 1 µM (IC50). In data set [5], this compound yielded a CC50 at 24 h of more than 100 µM. In [6], this compound registered a CC50 at 24 h of more than 100 µM.
In the case of `COc1cc(C(=Cc2cc([N+](=O)[O-])ccc2Cl)C(=O)O)cc(OC)c1OC` [compound d, 3-(2-chloro-5-nitrophenyl)-2-(3,4,5-trimethoxyphenyl) acrylic acid], the melting point is 247 to 248 °C. This compound came in with an IC50 with HepG2 cells [1] (Homo sapiens, HepG2, 24 h) of more than 100 µM. Besides, the IC50 in the data set with A549 cells (Homo sapiens, A549, 24 h) is more than 100 µM. In the data set with HeLa cells (Homo sapiens, HeLa), this compound showed an IC50 of 62 ± 3 µM. In [5], this compound yielded a CC50 at 24 h of more than 100 µM. It took 93 ± 2 µM to reach half-maximal cytotoxicity in data set [6] (CC50 at 24 h).
For the compound `COc1cc(C(=Cc2ccccc2OC(F)(F)F)C(=O)O)cc(OC)c1OC` [compound e, 3-(2-(trifluoromethoxy)phenyl)-2-(3,4,5-trimethoxyphenyl) acrylic acid], the melting point amounted to 164 °C. Besides, the IC50 in the data set with HepG2 cells [1] (Homo sapiens, HepG2, 24 h) was more than 100 µM. In the data set on A549 cells (Homo sapiens, A549, 24 h), this compound yielded an IC50 of more than 100 µM. This compound gave an IC50 with HeLa cells (Homo sapiens, HeLa) of 61 ± 3 µM. The compound further registered a CC50 at 24 h in [5] of 82 ± 2 µM. In data set [6], this compound gave a CC50 at 24 h of more than 100 µM.
As to `COc1ccc(C(=Cc2ccc(OC(F)(F)F)cc2)C(=O)O)cc1` [compound p, 2-(4-methoxyphenyl)-3-(4-(trifluoromethoxy)phenyl) acrylic acid], the melting point is 159 to 160 °C. Besides, in the data set with HepG2 cells [1] (Homo sapiens, HepG2, 24 h), the IC50 came to 7.7 ± 0.3 µM. The compound also gave an IC50 with A549 cells (Homo sapiens, A549, 24 h) of 14 ± 2 µM. Moreover, half-maximal inhibition in the data set with HeLa cells (Homo sapiens, HeLa) (IC50) required 5.1 ± 0.8 µM. Further, in data set [5], the midpoint of cytotoxicity, the CC50 at 24 h, lay at 93 ± 3 µM. In [6], this compound showed a CC50 at 24 h of 84 ± 2 µM.
